The source made the active and inactive calls.
Tests used:
[1] = target: Trypsin (Sus scrofa, UniProt P00761); assay: trypsin protease activity blockade – biochemical, quenched peptide fluorescence, cherry-pick, selectivity assay for Rce1 protease inhibitor project, dose response (AID 488789)
[2] = target: CAAX prenyl protease 2 (Homo sapiens, UniProt Q9Y256); assay: inhibition of Ras-converting CAAX protease Rce1 – biochemical, yeast membranes, quenched-peptide fluorescence, cherry-pick, dose response (AID 588849)
Sequence of CAAX prenyl protease 2 (Homo sapiens, UniProt Q9Y256) (Q9Y256 whole entry): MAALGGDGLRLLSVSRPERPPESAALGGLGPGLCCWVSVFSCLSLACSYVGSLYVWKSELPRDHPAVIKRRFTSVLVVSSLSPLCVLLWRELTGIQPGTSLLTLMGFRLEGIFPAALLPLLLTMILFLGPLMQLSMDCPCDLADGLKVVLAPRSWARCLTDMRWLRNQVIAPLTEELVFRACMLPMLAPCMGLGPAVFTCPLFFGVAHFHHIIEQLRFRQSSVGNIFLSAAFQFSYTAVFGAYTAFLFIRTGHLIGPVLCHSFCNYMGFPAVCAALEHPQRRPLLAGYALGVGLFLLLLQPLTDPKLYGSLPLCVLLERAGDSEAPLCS

[3] = target: CAAX prenyl protease 2 (Saccharomyces cerevisiae S288c, UniProt Q03530); format: biochemical
Sequence of CAAX prenyl protease 2 (Saccharomyces cerevisiae S288c, UniProt Q03530) (Q03530 whole entry): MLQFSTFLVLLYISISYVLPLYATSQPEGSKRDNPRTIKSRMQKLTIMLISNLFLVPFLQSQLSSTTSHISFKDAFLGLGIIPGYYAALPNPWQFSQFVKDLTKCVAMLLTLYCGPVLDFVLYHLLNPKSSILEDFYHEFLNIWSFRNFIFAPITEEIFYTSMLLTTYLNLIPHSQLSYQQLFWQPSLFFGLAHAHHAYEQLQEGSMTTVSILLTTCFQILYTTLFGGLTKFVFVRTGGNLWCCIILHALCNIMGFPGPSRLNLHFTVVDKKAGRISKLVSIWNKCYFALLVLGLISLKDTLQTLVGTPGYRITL

[4] = test system: Vero; assay: antiviral protection of cells from WNV – synthesized analogs, SAR follow-up (AID 2238); format: functional, cell-based; conditions: Chlorocebus sabaeus
[5] = test system: Vero; assay: host cell viability loss, Vero E6 – synthesized analogs, cytotoxicity control for West Nile virus antiviral project, SAR follow-up (AID 2244); format: functional; conditions: Chlorocebus sabaeus
[6] = target: T1, Short transient receptor potential channel 4 (Mus musculus, UniProt Q9QUQ5); assay: potentiation of DAMGO-evoked TRPC4 calcium signal – cell-based, HEK293 TRPC4/mu-opioid, Fluo-4 calcium, EC20 DAMGO, dose response (AID 434941); format: functional
T1 sequence (Q9QUQ5 whole entry): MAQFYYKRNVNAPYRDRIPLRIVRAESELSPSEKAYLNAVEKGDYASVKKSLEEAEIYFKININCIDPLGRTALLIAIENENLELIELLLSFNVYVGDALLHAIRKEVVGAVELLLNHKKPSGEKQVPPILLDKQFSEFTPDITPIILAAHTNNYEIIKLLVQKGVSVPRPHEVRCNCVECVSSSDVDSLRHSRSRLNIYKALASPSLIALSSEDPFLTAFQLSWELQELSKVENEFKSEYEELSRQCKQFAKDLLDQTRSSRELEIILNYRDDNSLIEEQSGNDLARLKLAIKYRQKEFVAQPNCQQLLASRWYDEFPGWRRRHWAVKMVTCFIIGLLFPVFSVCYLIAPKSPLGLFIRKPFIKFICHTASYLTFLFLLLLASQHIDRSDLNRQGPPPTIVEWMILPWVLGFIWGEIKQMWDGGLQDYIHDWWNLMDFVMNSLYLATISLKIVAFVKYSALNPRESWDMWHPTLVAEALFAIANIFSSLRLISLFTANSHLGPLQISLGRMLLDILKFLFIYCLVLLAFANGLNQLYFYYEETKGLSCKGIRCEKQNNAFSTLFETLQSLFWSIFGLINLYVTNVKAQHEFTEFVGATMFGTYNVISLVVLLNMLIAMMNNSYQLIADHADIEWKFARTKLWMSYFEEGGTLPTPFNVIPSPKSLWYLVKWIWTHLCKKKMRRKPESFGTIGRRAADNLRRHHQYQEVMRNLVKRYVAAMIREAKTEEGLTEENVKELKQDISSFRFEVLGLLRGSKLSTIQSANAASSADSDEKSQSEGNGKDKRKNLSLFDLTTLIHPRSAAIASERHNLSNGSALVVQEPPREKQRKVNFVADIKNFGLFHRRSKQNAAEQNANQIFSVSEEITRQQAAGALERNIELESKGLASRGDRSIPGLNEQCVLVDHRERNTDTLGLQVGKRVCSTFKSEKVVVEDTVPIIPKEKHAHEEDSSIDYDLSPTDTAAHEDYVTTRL

[7] = target: Voltage-dependent T-type calcium channel subunit alpha-1H (Homo sapiens, UniProt O95180); assay: human CACNA1H calcium influx blockade – cell-based, synthetic library set 1, calcium flux (AID 493022); format: functional
[8] = target: T2, Delta-type opioid receptor (Homo sapiens, UniProt P41143); assay: SAR Analysis of Antagonists of the DOR Receptor using an Image-Based Assay - Set 3. [Related pubchem assays (depositor defined):AID1777, AID1785]; format: functional
T2 sequence (P41143 whole entry): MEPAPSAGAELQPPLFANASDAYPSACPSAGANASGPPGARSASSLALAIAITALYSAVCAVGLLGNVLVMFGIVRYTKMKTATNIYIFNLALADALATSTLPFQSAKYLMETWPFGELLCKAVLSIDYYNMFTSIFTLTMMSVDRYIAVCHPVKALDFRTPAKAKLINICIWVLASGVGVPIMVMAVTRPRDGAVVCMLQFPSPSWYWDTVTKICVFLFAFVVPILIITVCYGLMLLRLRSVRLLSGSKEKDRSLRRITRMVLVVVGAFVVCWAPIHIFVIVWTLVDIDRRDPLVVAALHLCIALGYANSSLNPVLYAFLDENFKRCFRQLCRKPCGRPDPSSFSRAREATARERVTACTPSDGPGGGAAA

[9] = target: T3, Mu-type opioid receptor (Homo sapiens, UniProt P35372); assay: SAR Analysis of Antagonists of the MOR Receptor using an Image-Based Assay - Set 3. [Related pubchem assays (depositor defined):AID1777, AID1785, AID1786, AID1966, AID2133, AID2136, AID2284, AID2285, AID2420]; format: functional
T3 sequence (P35372 whole entry): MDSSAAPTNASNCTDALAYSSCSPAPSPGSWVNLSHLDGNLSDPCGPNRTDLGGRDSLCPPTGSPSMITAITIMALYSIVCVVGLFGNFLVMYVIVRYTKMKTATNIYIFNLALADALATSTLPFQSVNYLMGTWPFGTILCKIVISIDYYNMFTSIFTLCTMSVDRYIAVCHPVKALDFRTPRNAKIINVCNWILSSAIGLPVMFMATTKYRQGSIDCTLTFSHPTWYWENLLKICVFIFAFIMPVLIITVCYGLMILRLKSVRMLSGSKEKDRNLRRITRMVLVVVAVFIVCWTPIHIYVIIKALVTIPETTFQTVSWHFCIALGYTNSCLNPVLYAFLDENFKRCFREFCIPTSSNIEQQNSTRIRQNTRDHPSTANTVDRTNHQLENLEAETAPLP

[10] = target: T4, Kappa-type opioid receptor (Homo sapiens, UniProt P41145); assay: SAR analysis of small molecule antagonists of the kappa opioid receptor via a luminescent beta-arrestin assay - Set 3. [Related pubchem assays (depositor defined):AID1777, AID1778, AID1785, AID1786, AID1966, AID2133, AID2136, AID2285, AID2495]; format: functional
T4 sequence (P41145 whole entry): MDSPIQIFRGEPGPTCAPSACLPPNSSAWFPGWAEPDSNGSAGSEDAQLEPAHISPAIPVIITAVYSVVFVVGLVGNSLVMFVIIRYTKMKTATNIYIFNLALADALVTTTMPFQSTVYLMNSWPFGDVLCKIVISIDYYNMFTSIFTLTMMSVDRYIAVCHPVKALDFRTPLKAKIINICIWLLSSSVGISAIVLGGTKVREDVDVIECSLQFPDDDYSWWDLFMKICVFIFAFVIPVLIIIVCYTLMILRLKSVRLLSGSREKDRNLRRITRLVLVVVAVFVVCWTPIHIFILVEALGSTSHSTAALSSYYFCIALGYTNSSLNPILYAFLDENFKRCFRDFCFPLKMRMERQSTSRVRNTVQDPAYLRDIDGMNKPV

[11] = target: T4, Kappa-type opioid receptor; assay: SAR analysis of Antagonists of the Kappa Opioid Receptor (KOR) using an Image-Based Assay - Set 3. [Related pubchem assays (depositor defined):AID1777, AID1785]; format: functional
[12] = target: T5, Protein RecA (Mycobacterium tuberculosis, UniProt P9WHJ3); assay: Fluorescence Cell-Free Homogeneous Dose Retest to Identify Inhibitors of RecA-Intein Splicing Activity. [Related pubchem assays (depositor defined):AID2097, AID2223, AID489010, AID492950]; format: functional
T5 sequence (P9WHJ3 whole entry): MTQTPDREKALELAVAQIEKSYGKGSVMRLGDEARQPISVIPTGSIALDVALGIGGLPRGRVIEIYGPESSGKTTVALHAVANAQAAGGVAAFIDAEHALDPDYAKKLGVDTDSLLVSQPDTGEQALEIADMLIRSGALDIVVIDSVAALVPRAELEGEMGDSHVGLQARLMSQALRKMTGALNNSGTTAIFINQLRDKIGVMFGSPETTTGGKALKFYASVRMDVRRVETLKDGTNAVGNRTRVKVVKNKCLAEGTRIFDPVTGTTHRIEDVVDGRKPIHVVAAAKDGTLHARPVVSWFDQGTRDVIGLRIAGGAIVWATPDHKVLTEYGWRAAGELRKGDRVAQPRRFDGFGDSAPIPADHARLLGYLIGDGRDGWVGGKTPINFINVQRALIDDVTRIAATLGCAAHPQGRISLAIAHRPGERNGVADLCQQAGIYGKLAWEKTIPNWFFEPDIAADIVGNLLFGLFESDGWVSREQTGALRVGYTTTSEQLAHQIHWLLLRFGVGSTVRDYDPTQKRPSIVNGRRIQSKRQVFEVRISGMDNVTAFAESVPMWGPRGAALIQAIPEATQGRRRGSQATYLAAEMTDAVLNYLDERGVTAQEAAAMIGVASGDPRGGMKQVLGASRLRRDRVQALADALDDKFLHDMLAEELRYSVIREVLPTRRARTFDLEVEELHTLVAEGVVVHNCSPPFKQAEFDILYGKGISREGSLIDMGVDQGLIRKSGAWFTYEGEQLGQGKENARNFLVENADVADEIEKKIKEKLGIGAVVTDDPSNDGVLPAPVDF

[13] = target: T4, Kappa-type opioid receptor; format: functional
[14] = target: Beta-galactosidase (Escherichia coli, UniProt Q8VNN2); format: functional
[15] = alpha-synuclein stem-loop luciferase translation blockers – H4 neuroglioma cells, luminescence, confirmation (AID 1988); format: functional, cell-based
[16] = target: G-protein coupled receptor 55 (Homo sapiens, UniProt Q9Y2T6); assay: inhibition of LPI-stimulated GPR55 beta-arrestin translocation – imaging, U2OS, beta-arrestin-GFP, LPI agonist, primary screen (AID 2013); format: functional;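 also: antagonist potency measured as reduced agonist-driven arrestin aggregation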
Sequence of G-protein coupled receptor 55 (Q9Y2T6 whole entry): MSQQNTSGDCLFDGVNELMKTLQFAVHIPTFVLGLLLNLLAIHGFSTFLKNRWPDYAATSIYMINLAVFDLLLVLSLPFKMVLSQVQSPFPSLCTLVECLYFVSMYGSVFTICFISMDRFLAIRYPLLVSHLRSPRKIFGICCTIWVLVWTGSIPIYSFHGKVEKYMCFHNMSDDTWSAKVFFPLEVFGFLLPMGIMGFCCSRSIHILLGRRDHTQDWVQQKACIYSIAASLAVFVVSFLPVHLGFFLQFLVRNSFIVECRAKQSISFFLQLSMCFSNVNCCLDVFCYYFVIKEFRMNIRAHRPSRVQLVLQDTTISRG

[17] = target: E3 ubiquitin-protein ligase Mdm2 (Homo sapiens, UniProt Q00987); assay: MDM2-luc reporter signal enhancers, multi-concentration potency testing, MDM2 ubiquitin-protein ligase inhibitor program, whole-cell format, luminescence detection, 384-well microplate (AID 1394); format: functional;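 also: MDM2 E3 inhibitors raise luminescence so EC50 is for signal enhancement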
Sequence of E3 ubiquitin-protein ligase Mdm2 (Q00987 whole entry): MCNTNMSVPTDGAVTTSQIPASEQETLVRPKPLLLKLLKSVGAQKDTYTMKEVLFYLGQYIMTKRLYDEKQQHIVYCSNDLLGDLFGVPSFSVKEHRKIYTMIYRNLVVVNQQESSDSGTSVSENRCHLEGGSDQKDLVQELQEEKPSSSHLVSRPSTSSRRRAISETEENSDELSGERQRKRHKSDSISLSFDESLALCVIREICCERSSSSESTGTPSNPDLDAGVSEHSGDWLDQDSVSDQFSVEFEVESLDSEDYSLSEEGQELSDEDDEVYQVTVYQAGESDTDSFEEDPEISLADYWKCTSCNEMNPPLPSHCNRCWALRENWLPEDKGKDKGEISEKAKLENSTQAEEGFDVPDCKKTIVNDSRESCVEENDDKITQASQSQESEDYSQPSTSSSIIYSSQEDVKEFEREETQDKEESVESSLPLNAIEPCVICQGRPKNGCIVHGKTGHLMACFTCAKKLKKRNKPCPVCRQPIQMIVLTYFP

[18] = target: T2, Delta-type opioid receptor; assay: HTS Image-Based Screen for Agonists of the DOR Receptor. [Related pubchem assays (depositor defined):AID1777, AID1786, AID2133]; format: functional
[19] = target: G-protein coupled receptor 35 (Homo sapiens, UniProt Q9HC97); assay: inhibition of zaprinast-stimulated GPR35 beta-arrestin translocation – imaging, U2OS, beta-arrestin-GFP, zaprinast agonist, primary screen (AID 2058); format: functional;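 also: antagonist potency meaning inhibition of agonist-induced arrestin redistribution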
Sequence of G-protein coupled receptor 35 (Q9HC97 whole entry): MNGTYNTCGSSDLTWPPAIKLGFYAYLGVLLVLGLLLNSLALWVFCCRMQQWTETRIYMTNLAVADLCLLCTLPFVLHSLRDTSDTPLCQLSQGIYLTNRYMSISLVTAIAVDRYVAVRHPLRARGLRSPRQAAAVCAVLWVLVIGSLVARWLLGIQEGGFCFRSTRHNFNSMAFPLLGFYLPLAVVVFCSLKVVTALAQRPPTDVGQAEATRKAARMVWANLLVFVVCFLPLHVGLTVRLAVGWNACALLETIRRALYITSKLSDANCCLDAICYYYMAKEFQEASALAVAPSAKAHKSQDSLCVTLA

[20] = target: T6, Replicative DNA helicase DnaB (Mycobacterium tuberculosis, UniProt P9WMR3); assay: DnaB intein splicing inhibitors, dose response, biochemical, cell-free fluorescence (AID 449749); format: functional
T6 sequence (P9WMR3 whole entry): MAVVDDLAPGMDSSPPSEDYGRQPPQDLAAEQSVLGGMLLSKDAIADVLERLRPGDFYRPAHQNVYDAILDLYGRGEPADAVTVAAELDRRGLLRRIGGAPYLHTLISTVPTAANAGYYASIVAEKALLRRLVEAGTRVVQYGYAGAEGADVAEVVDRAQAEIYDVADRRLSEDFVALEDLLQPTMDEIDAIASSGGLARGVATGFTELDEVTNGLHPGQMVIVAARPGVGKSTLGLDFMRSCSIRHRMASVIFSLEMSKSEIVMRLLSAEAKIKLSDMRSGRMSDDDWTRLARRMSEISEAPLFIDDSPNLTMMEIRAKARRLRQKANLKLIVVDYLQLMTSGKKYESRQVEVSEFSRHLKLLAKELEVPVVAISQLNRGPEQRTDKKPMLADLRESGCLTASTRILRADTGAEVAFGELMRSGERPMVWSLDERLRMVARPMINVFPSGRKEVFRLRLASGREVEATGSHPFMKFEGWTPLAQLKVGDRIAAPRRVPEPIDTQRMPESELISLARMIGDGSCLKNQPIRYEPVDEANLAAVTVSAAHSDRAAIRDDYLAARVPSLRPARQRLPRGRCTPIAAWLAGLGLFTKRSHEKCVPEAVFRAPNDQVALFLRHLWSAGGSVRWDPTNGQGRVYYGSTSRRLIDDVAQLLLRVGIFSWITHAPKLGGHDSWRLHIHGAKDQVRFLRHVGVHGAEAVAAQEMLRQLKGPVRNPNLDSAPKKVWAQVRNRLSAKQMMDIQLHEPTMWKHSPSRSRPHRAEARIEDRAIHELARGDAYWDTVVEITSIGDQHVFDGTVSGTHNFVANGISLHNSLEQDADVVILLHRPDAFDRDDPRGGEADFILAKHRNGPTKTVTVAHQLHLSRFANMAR

[21] = luciferase reporter signal suppression in cells – H4 neuroglioma cells, luminescence, dose response (AID 1990); format: functional, cell-based
[22] = target: T2, Delta-type opioid receptor; assay: HTS Image-Based Screen for Antagonists of the DOR Receptor. [Related pubchem assays (depositor defined):AID1777, AID1785, AID1786, AID2133]; format: functional
[23] = target: T3, Mu-type opioid receptor; assay: HTS Image-Based Screen for Agonists of the MOR Receptor. [Related pubchem assays (depositor defined):AID1777, AID1785, AID1786, AID2133]; format: functional
[24] = target: T4, Kappa-type opioid receptor; format: functional; remark: listed apart in the source
[25] = Luminescence Cell-Based Dose Response HTS to Identify Inhibitors of 5'UTR Stem-Loop Driven Prion Protein mRNA Translation in H4 Neuroglioblastoma Cells. [Related pubchem assays: 1827 (Project Summary), 1813 (Primary HTS)]; format: functional
[26] = target: T7, Bcl-2-like protein 10 (Homo sapiens, UniProt Q9HD36); assay: Bcl-B/TR3 peptide binding disruption – biochemical, fluorescence polarization, FITC-TR3 peptide, selectivity assay for Bfl-1 inhibitor project, primary screen (AID 748);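 also: fluorescence polarization from a fluorescein-labelled TR3 peptide binding purified Bcl-B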
T7 sequence (Q9HD36 whole entry): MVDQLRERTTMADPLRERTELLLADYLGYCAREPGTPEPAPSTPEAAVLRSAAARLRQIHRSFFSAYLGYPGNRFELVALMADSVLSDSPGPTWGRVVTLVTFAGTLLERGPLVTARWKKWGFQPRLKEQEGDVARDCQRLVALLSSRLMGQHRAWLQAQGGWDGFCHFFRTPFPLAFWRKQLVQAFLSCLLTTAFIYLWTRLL

[27] = viability loss in THP-1 monocytes – THP-1 cells, cytotoxicity control for Vif-APOBEC3G degradation inhibitor project, dose response (AID 1117359); format: functional; conditions: THP-1
[28] = viability loss in Vero cells – cytotoxicity control for Vif-APOBEC3G degradation inhibitor project, dose response (AID 1117358); format: functional; conditions: Vero
[29] = target: T8, SUMO-activating enzyme (Homo sapiens, UniProt Q9UBT2); assay: blockers of UBC9-mediated SUMO conjugation – biochemical, AlphaScreen, SUMOylation inhibitor project, confirmation (AID 2018); format: functional
T8 sequence (Q9UBE0 whole entry): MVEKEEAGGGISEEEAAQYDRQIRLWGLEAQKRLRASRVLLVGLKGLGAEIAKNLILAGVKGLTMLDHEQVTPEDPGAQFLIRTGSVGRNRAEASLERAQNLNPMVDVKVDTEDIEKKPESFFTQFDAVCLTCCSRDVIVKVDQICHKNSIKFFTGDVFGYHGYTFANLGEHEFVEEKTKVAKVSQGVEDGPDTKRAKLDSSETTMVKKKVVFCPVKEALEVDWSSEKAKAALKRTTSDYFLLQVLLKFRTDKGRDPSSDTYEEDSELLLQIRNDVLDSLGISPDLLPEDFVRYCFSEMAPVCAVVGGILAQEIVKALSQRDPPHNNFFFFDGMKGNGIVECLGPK
T8 sequence (Q9UBT2 whole entry): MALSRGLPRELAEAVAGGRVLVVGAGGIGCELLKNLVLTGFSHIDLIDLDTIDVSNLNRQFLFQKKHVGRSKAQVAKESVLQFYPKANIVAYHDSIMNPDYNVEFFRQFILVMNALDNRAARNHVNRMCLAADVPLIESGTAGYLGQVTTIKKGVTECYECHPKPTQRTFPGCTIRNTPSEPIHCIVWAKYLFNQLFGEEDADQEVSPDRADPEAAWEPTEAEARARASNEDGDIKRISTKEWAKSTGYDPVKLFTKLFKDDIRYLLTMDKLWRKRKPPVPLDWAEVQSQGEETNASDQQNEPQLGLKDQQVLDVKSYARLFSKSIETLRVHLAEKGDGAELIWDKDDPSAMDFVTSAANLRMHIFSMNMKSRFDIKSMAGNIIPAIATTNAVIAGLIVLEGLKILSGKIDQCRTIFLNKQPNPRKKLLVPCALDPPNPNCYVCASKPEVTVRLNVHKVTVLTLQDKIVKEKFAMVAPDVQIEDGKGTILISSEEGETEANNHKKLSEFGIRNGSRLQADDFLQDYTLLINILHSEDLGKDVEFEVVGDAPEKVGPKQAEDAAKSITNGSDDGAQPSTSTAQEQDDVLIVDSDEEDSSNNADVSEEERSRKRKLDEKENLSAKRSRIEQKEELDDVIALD

[30] = target: Tyrosine-protein phosphatase non-receptor type 7 (Homo sapiens, UniProt P35236); assay: redox-active compounds inhibiting HePTP phosphatase – biochemical, fluorescence, mechanism study (AID 2068); format: functional
Sequence of Tyrosine-protein phosphatase non-receptor type 7 (P35236 whole entry): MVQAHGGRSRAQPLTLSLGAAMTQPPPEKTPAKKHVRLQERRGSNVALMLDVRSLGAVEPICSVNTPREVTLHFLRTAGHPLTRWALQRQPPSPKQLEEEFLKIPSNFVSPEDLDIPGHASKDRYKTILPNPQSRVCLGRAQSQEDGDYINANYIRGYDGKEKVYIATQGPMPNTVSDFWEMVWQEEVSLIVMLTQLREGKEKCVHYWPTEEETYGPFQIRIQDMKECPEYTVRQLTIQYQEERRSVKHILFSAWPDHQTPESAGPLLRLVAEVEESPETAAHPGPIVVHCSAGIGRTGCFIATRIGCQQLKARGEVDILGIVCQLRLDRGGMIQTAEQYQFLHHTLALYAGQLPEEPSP

[31] = target: T8, SUMO-activating enzyme; assay: blockers of SAE1/SAE2–UBC9 SUMO transfer – biochemical, HTRF, uHTS, primary screen (AID 2006); format: protein-complex assay

Sequence of Trypsin (P00761 whole entry): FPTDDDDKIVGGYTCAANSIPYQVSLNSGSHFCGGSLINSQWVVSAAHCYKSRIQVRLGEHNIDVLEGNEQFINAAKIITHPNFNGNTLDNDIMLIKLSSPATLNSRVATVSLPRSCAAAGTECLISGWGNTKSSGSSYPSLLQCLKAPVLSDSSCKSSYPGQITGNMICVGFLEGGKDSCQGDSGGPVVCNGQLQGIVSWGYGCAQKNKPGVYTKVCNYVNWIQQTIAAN

SMILES: COc1ccc(-c2cc3ccc(OCc4nn[nH]n4)cc3oc2=O)cc1OC
- AC50 [1]: 2.34 µM (active)
- AC50 [2]: 1.71 µM (active)
- AC50 [3]: 20.3 µM (active)

SMILES: COc1ccc(-c2csc(N(CCCN(C)C)C(=O)c3ccccc3C)n2)cc1
- IC50 [4]: 76.6 µM (active)
- CC50 [5]: 63.2 µM (active)

SMILES: Cc1cccc(Cc2c(C)nc3c(C(=O)NCc4ccco4)cnn3c2C)c1
- EC50 [6]: 3.76 µM (active)

SMILES: O=C(COc1ccc(F)cc1)Nc1nnc(-c2ccc(F)c(F)c2)o1
- EC50 [7]: 3.7 µM (active)

SMILES: CCc1ccc(S(=O)(=O)NCc2ccc(C(=O)NCCN(Cc3ccccc3)Cc3ccccc3)cc2)cc1
- IC50 [8]: > 32 µM (inactive)
- IC50 [9]: > 32 µM (inactive)
- IC50 [10]: > 20 µM (inactive)
- IC50 [11]: > 32 µM (inactive)

SMILES: CC(NC(=O)Cn1ncc(Cl)c(Cl)c1=O)C12CC3CC(CC(C3)C1)C2 (stereo unspecified)
- EC50 [12]: 0.047 µM (active)
- IC50 [13]: 2.14 µM (active)
- EC50 [14]: > 31.5 µM (inactive)
- EC50 [15]: > 120 µM (not active)
- IC50 [16]: 3.92 µM (active)
- EC50 [17]: 1.55 µM (active)
- EC50 [18]: > 32 µM (inactive)
- IC50 [19]: 1.07 µM (active)
- AC50 [20]: 0.441 µM (active)
- EC50 [21]: 8.55 µM (active)
- IC50 [22]: 6.48 µM (active)
- EC50 [23]: > 32 µM (inactive)
- IC50 [24]: 2.63 µM
- EC50 [25]: 6.41 µM (active)

SMILES: O=C(Nc1ccccc1)c1ccc2nc(-c3ccco3)c(-c3ccco3)nc2c1
- IC50 [26]: > 100 µM (inactive)
- CC50 [27]: > 40 µM (active)
- CC50 [28]: > 40 µM (active)
- IC50 [29]: 1.54 µM (active)
- IC50 [30]: 2.51 µM (active)
- IC50 [31]: 20.7 µM (active)

Source: ChEMBL document CHEMBL1201862, “PubChem BioAssay data set” (2004)
